≈ marks a conversion by molar mass, not a printed value.
Columns and labels:
Assay in all cases: In vitro antibacterial evaluation: minimum inhibitory concentration (MIC), broth dilution method
Type in all cases: cell-based
Enterococcus sp. = tested on: Enterococcus sp.
Procedure, shortened: (§1)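 Using Muller-Hinton II […] and an inoculum of 5×10^5 CFU/mL, antibiotic dilutions from 64 down to 0.06 μg/mL were tested following NCCLS M7-A2. The MIC is the lowest concentration inhibiting growth, including in methicillin-, penicillin- or vancomycin-resistant clinical isolates.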

Escherichia coli = tested on: Escherichia coli
Procedure, shortened: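 Test strains, among them recent clinical isolates carrying methicillin, penicillin and/or vancomycin resistance, were inoculated at 5×10^5 CFU/mL. A broth dilution series spanning 64-0.06 μg/mL in Muller-Hinton II […] (NCCLS M7-A2) defined the MIC as the lowest growth-inhibiting concentration.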

Staphylococcus sp. = details: broth dilution, 18 hours at 35° C.
Procedure, shortened: as §1

Streptococcus sp. = tested on: Streptococcus sp.
Procedure, shortened: as §1

[1] = broth dilution, inoculum 5×10^5 CFU/mL, 18 hours at 35° C.

- MIC Enterococcus avium (GC 4558) (Enterococcus sp.; [1]): 4 µg/mL (≈ 2.69 µM)
- MIC Enterococcus faecalis (ATCC 29212) (Enterococcus sp.; [1]): 8 µg/mL (≈ 5.39 µM)
- MIC Enterococcus faecalis (GC 2242) (Enterococcus sp.; [1]): 4 µg/mL (≈ 2.69 µM)
- MIC Enterococcus faecalis (GC 2691) (Enterococcus sp.; [1]): 4 µg/mL (≈ 2.69 µM)
- MIC Enterococcus faecalis (GC 3059) (Enterococcus sp.; [1]): 8 µg/mL (≈ 5.39 µM)
- MIC Enterococcus faecalis (GC 4552) (Enterococcus sp.; [1]): 8 µg/mL (≈ 5.39 µM)
- MIC Enterococcus faecalis (GC 4553) (Enterococcus sp.; [1]): 4 µg/mL (≈ 2.69 µM)
- MIC Enterococcus faecalis (GC 4554) (Enterococcus sp.; [1]): 4 µg/mL (≈ 2.69 µM)
- MIC Enterococcus faecalis (GC 6189) (Enterococcus sp.; [1]): 2 µg/mL (≈ 1.35 µM)
- MIC Enterococcus faecium (GC 2243) (Enterococcus sp.; [1]): 8 µg/mL (≈ 5.39 µM)
- MIC Enterococcus faecium (GC 4556) (Enterococcus sp.; [1]): 8 µg/mL (≈ 5.39 µM)
- MIC Enterococcus faecium (GC 4557) (Enterococcus sp.; [1]): 8 µg/mL (≈ 5.39 µM)
- MIC Enterococcus faecalis (ATCC 29212) (Enterococcus sp.; strain ATCC 29212): 8 µg/mL (≈ 5.39 µM)
- MIC Enterococcus faecalis (GC 2242) (Enterococcus sp.; strain GC 2242): 4 µg/mL (≈ 2.69 µM)
- MIC Enterococcus faecium (GC 2243) (Enterococcus sp.; strain GC 2243): 8 µg/mL (≈ 5.39 µM)
- MIC Enterococcus faecalis (GC 2691) (Enterococcus sp.; strain GC 2691): 4 µg/mL (≈ 2.69 µM)
- MIC Enterococcus faecalis (GC 3059) (Enterococcus sp.; strain GC 3059): 8 µg/mL (≈ 5.39 µM)
- MIC Enterococcus faecalis (GC 4552) (Enterococcus sp.; strain GC 4552): 8 µg/mL (≈ 5.39 µM)
- MIC Enterococcus faecalis (GC 4553) (Enterococcus sp.; strain GC 4553): 4 µg/mL (≈ 2.69 µM)
- MIC Enterococcus faecalis (GC 4554) (Enterococcus sp.; strain GC 4554): 4 µg/mL (≈ 2.69 µM)
- MIC Enterococcus faecium (GC 4556) (Enterococcus sp.; strain GC 4556): 8 µg/mL (≈ 5.39 µM)
- MIC Enterococcus faecium (GC 4557) (Enterococcus sp.; strain GC 4557): 8 µg/mL (≈ 5.39 µM)
- MIC Enterococcus avium (GC 4558) (Enterococcus sp.; strain GC 4558): 4 µg/mL (≈ 2.69 µM)
- MIC Enterococcus faecalis (GC 6189) (Enterococcus sp.; strain GC 6189): 2 µg/mL (≈ 1.35 µM)
- MIC Escherichia coli (ATCC 25922) (Escherichia coli; strain ATCC 25922): >64 µg/mL
- MIC Escherichia coli (GC 4559) (Escherichia coli; strain GC 4559): >64 µg/mL
- MIC Escherichi coli (GC 4560) (Escherichia coli; strain GC 4560): 2 µg/mL (≈ 1.35 µM)
- MIC Coagulase Negative Staphylococcus (GC 4547) (Staphylococcus sp.; 5×10^5 CFU/mL): 8 µg/mL (≈ 5.39 µM)
- MIC Coagulase Negative Staphylococcus (GC 4548) (Staphylococcus sp.; 5×10^5 CFU/mL): 2 µg/mL (≈ 1.35 µM)
- MIC Coagulase Negative Staphylococcus (GC 4549) (Staphylococcus sp.; 5×10^5 CFU/mL): 2 µg/mL (≈ 1.35 µM)
- MIC Coagulase Negative Staphylococcus (GC 4551) (Staphylococcus sp.; 5×10^5 CFU/mL): 4 µg/mL (≈ 2.69 µM)
- MIC Coagulase Negative Staphylococcus (GC 6257) (Staphylococcus sp.; 5×10^5 CFU/mL): 2 µg/mL (≈ 1.35 µM)
- MIC Staphylococcus aureus (ATCC 29213) (Staphylococcus sp.; 5×10^5 CFU/mL): 4 µg/mL (≈ 2.69 µM)
- MIC Staphylococcus aureus (GC 1131) (Staphylococcus sp.; 5×10^5 CFU/mL): 8 µg/mL (≈ 5.39 µM)
- MIC Staphylococcus aureus (GC 3051) (Staphylococcus sp.; 5×10^5 CFU/mL): 4 µg/mL (≈ 2.69 µM)
- MIC Staphylococcus aureus (GC 3053) (Staphylococcus sp.; 5×10^5 CFU/mL): 4 µg/mL (≈ 2.69 µM)
- MIC Staphylococcus aureus (GC 4541) (Staphylococcus sp.; 5×10^5 CFU/mL): 4 µg/mL (≈ 2.69 µM)
- MIC Staphylococcus aureus (GC 4542) (Staphylococcus sp.; 5×10^5 CFU/mL): 2 µg/mL (≈ 1.35 µM)
- MIC Staphylococcus aureus (GC 4544) (Staphylococcus sp.; 5×10^5 CFU/mL): 8 µg/mL (≈ 5.39 µM)
- MIC Staphylococcus aureus (GC 4545) (Staphylococcus sp.; 5×10^5 CFU/mL): 4 µg/mL (≈ 2.69 µM)
- MIC Staphylococcus aureus-SMITH (GC 4543) (Staphylococcus sp.; 5×10^5 CFU/mL): 8 µg/mL (≈ 5.39 µM)
- MIC Staphylococcus aureus (ATCC 29213) (Staphylococcus sp.; strain ATCC 29213): 4 µg/mL (≈ 2.69 µM)
- MIC Staphylococcus aureus (GC 1131) (Staphylococcus sp.; strain GC 1131): 8 µg/mL (≈ 5.39 µM)
- MIC Staphylococcus aureus (GC 3051) (Staphylococcus sp.; strain GC 3051): 4 µg/mL (≈ 2.69 µM)
- MIC Staphylococcus aureus (GC 3053) (Staphylococcus sp.; strain GC 3053): 4 µg/mL (≈ 2.69 µM)
- MIC Staphylococcus aureus (GC 4541) (Staphylococcus sp.; strain GC 4541): 4 µg/mL (≈ 2.69 µM)
- MIC Staphylococcus aureus (GC 4542) (Staphylococcus sp.; strain GC 4542): 2 µg/mL (≈ 1.35 µM)
- MIC Staphylococcus aureus (GC 4544) (Staphylococcus sp.; strain GC 4544): 8 µg/mL (≈ 5.39 µM)
- MIC Staphylococcus aureus (GC 4545) (Staphylococcus sp.; strain GC 4545): 4 µg/mL (≈ 2.69 µM)
- MIC Streptococcus agalactiae (GC 4564) (Streptococcus sp.; [1]): <0.06 µg/mL
- MIC Streptococcus pneumoniae (ATCC 6301) (Streptococcus sp.; [1]): <0.06 µg/mL
- MIC Streptococcus pneumoniae (GC 1894) (Streptococcus sp.; [1]): <0.06 µg/mL
- MIC Streptococcus pneumoniae (GC 4565) (Streptococcus sp.; [1]): <0.06 µg/mL
- MIC Streptococcus pyogenes (GC 4563) (Streptococcus sp.; [1]): 0.12 µg/mL (≈ 0.0808 µM)
- MIC Streptococcus pneumoniae (ATCC 6301) (Streptococcus sp.; strain ATCC 6301): <0.06 µg/mL
- MIC Streptococcus pneumoniae (GC 1894) (Streptococcus sp.; strain GC 1894): <0.06 µg/mL
- MIC Streptococcus pyogenes (GC 4563) (Streptococcus sp.; strain GC 4563): 0.12 µg/mL (≈ 0.0808 µM)
- MIC Streptococcus agalactiae (GC 4564) (Streptococcus sp.; strain GC 4564): <0.06 µg/mL
- MIC Streptococcus pneumoniae (GC 4565) (Streptococcus sp.; strain GC 4565): <0.06 µg/mL
Compound: CC(c1ccccc1)C1NC(=O)CNC(=O)C(CO)NC(=O)C(C(O)C2CNC(=N)N2C2OC(CO)C(O)C(O)C2O)NC(=O)C(C(O)C2CNC(=N)N2)NC(=O)C(Cc2ccc(OC3OC(CO)C(OC4OC5COC(c6ccc(C=Cc7ccccc7)cc6)OC5C(O)C4O)C(O)C3O)cc2)NC1=O (stereo not drawn) [Example 172]
- MIC Staphylococcus haemolyticus (GC 4546) (Staphylococcus sp.; 5×10^5 CFU/mL): 8 µg/mL (≈ 5.39 µM)

— patent publication US8247211B2, “Glycopeptide antibiotics” (American Cyanamid Company, priority 2001, dated 2012)
